Data on three molecules can be found in publication PMC5790609 (Journal of neuroimmune pharmacology : the official journal …, 2017).

The target in data set [1] is TSPO (C/C rs6971 genotype) (Homo sapiens, UniProt P30536). Briefly: [3H]-DPA-713 dissociation kinetics, platelet lysates, C/C genotype. Type of data set: binding. To be noted: PK11195 5 μM, cholesterol 1.2 μM.
Data set [2] concerns TSPO (C/T rs6971 genotype). Briefly: [3H]-DPA-713 dissociation kinetics, platelet lysates, C/T genotype. The class given is binding, human. The settings on record: for effect on rate of dissociation of [3H]-DPA-713 vs. excess DPA-713: PK11195 5 μM, cholesterol 1.2 μM.
The target in data set [3] is TSPO (T/T rs6971 genotype) (Homo sapiens, UniProt P30536). Description: [3H]-DPA-713 dissociation kinetics, platelet lysates, T/T genotype. Type of data set: binding. The settings on record: PK11195 5 μM, cholesterol 1.2 μM.
TSPO (T/T rs6971 genotype), sequence (P30536 2-169): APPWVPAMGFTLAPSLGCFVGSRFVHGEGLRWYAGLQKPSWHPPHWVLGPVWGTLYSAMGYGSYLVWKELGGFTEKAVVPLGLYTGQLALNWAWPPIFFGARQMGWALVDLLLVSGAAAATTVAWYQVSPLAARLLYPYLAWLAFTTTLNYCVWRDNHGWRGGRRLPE
For data set [4] the following is noted: ref Vivash and O'Brien 2016; cited from earlier work.

TSPO (C/C rs6971 genotype), sequence (P30536 whole entry): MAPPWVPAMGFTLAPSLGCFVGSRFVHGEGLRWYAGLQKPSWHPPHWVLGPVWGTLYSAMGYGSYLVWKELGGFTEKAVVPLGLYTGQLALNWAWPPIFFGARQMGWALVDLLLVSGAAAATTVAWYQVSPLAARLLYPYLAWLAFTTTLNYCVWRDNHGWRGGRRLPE

Consider `CC(C)CCC[C@@H](C)[C@H]1CC[C@H]2[C@@H]3CC=C4C[C@@H](O)CC[C@]4(C)[C@H]3CC[C@]12C` [cholesterol], for which the “effect on rate of dissociation of [3H]-DPA-713 vs. excess DPA-713” value in data set [1] is “the same”; in data set [2] it was “the same”; in data set [3] it was “accelerated”.

Take `CCN(CC)C(=O)Cc1c(-c2ccc(OC)cc2)nn2c(C)cc(C)nc12` [DPA-713]: in data set [2], the “dissociation rates of [3H]-DPA-713 with 2 vs. 12 μM DPA-713” value is on record as “the same”.

As for `CCC(C)N(C)C(=O)c1cc2ccccc2c(-c2ccccc2Cl)n1` (centres unmarked) [PK11195], the “effect on rate of dissociation of [3H]-DPA-713 vs. excess DPA-713” value in data set [1] is reported as “the same”; in data set [2] it was “the same”; in data set [3], “accelerated”. Also, the “non-specific plasma protein binding” value in data set [4] is on record as “high”.
